# Laboratory results taken from US10946383B2, “Oligonucleotide encoded chemical libraries” (Plexium, Inc., priority 2017, dated 2021).
# Biological target: Cathepsin-D protease (Homo sapiens, UniProt P07339)
# Experiment: Cathepsin-D protease inhibition assay in picowells with bead-released compound and Peptide Q-Fluor substrate
# Format: biochemical
# Conditions: compound released from 10 μm TentaGel beads by UV (365 nm, 77 J/cm^2) to approximately 13 μM; 30 min, 37° C.
# Cathepsin-D protease, sequence (P07339 65-412): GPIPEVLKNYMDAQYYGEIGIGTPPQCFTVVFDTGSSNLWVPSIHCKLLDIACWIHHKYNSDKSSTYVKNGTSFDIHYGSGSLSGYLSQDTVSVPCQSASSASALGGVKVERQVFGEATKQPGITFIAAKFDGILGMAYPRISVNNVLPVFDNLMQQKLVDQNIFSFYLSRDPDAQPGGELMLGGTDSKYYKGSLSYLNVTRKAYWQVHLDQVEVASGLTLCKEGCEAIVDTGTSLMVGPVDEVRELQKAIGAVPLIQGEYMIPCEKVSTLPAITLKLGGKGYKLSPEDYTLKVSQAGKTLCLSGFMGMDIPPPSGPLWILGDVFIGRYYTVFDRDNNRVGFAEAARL
compound,measurement,value
"CC(C)[C@H](NC(=O)OCC1c2ccccc2-c2ccccc21)C(=O)O [negative control beads, Fmoc-Valine]",Cathepsin-D inhibition (fluorescence of cleaved Peptide Q-Fluor substrate),no Cathepsin-D inhibition
